Patent US20110015261A1, “USE OF A COMPOSITION COMPRISING AT LEAST ONE BETA-BLOCKER FOR THE TREATMENT OF SLEEP DISORDERS” (Zleepax Europe ApS, priority 2007, published 2011)
Like-named read-outs stand apart in the source and are kept apart here.

How the values were obtained:
[1] = system: patients with hypertension; settings: cited from earlier work; for effect on the quality of sleep: patients with hypertension (Stoschitzky 2006)
[2] = system: nocturnal aMT6s secretion; settings: healthy volunteers (Stoschitzky 2006); cited from earlier work
[3] = system: non-hypertensive stressed individuals with transient insomnia; experiment: Sleep quality in non-hypertensive stressed individuals with transient insomnia; assay type: in vivo, human; settings: 1.25 mg 2 hours before bedtime; 6 individuals (5 males, 1 female)
Method: 6 non-hypertensive stressed individuals with transient insomnia (5 males and 1 female) were treated with 1.25 mg Hypoloc (Nebivolol) 2 hours before bedtime.

SMILES | effect on the quality of sleep [1] | quality of sleep ([1]; patients with hypertension (Testa 1993)) | effects on the nocturnal aMT6s urinary secretion [2] | sleep quality as reported by individuals [3] | quality of sleep ([1]; patients with hypertension (Erdem 2007))
CC(C)NCC(O)COc1ccc(COCCOC(C)C)cc1 (centres unmarked) [Bisoprolol] | no negative effect |  |  |  | 
C[C@H](CS)C(=O)N1CCC[C@H]1C(=O)O [Captopril] |  | improve the quality of sleep |  |  | 
COc1ccccc1OCCNCC(O)COc1cccc2[nH]c3ccccc3c12 (centres unmarked) [Carvedilol] | no negative effect |  | little if any effects |  | 
OC(CNCC(O)C1CCc2cc(F)ccc2O1)C1CCc2cc(F)ccc2O1 (centres unmarked) [Nebivolol] | no negative effect |  | little if any effects | significant improvement in sleep quality | can improve the quality of sleep
